{"source": "patent US11584714B2", "about": "(priority 2018, dated 2023)", "format_in_all_cases": "biochemical", "key": {"[1]": {"biological_target": "MASP-2 (CCP1-CCP2-SP) (Homo sapiens (Human), UniProt O00187)", "sequence (O00187 445-686)": "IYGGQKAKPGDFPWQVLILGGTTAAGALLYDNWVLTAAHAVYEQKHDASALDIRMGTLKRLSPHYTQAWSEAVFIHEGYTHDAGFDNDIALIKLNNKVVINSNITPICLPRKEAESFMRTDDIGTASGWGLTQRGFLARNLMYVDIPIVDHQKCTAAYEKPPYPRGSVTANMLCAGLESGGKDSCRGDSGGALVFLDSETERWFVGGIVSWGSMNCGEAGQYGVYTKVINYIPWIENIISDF", "experiment": "biochemical", "settings": "for MASP-2 vs. thrombin selectivity: selectivity for MASP-2 inhibition versus thrombin"}, "[2]": {"biological_target": "mMASP-2 (Mus musculus (Mouse), UniProt Q91WP0)", "sequence (Q91WP0 20-685)": "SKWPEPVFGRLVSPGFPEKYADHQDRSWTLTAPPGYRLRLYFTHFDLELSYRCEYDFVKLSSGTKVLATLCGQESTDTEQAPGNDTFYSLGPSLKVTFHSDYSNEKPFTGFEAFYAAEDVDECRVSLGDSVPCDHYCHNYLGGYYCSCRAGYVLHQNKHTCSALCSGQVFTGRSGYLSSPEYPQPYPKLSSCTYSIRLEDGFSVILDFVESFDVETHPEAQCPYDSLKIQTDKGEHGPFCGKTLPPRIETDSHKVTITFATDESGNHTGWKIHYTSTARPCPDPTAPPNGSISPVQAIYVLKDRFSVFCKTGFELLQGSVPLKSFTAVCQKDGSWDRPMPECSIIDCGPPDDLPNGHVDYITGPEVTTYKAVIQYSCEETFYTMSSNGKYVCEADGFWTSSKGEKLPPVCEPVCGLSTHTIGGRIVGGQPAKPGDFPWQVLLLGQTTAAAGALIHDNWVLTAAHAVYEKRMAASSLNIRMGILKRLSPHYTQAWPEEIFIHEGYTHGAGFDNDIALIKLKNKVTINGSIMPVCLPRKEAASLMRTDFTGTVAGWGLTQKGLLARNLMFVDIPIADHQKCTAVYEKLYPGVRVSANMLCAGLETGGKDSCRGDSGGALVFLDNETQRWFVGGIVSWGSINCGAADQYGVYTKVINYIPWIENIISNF", "experiment": "Enzymatic inhibition of mMASP-2", "settings": "read-out: mMASP-2 Ki"}, "[3]": {"biological_target": "human α-thrombin (Homo sapiens (Human), UniProt P00734)", "experiment": "Enzymatic assay for thrombin (Boc-VPR-AMC substrate)", "settings": "for pKi: read-out: Thrombin Ki; for Ki: Thrombin Ki (μM)"}}, "note": "pKi: −log10 of the molar value. Counter-ions that a name gives are not always drawn. Like-named read-outs stand apart in the source and are kept apart here.", "data": [{"compound": "Cc1nc(N)ccc1CNC(=O)[C@H](C)NC(=O)[C@H]1C[C@@H](c2ccccc2)CCN1CC(=O)O", "note": "[compound 1398, 2-((2R,4S)-2-(((S)-1-(((6-Amino-2-methylpyridin-3-yl)methyl)amino)-1-oxopropan-2-yl)carbamoyl)-4-phenylpiperidin-1-yl)acetic acid Trifluoroacetate salt]", "values": [{"measurement": "pKi", "setting": "[1]; read-out: MASP-2 Ki", "result": "> 6.30"}, {"measurement": "pKi", "setting": "[2]", "result": "5.60 to 6.30"}, {"measurement": "pKi", "setting": "[3]", "result": "< 4.60"}]}, {"compound": "C[C@H](NC(=O)[C@H]1C[C@H](c2ccccc2)CN1)C(=O)NCc1cnc2[nH]cc(Cl)c2c1", "note": "[compound 1329, (2R,4R)—N—((S)-1-(((3-chloro-1H-pyrrolo[2,3-b]pyridin-5-yl)methyl)amino)-1-oxopropan-2-yl)-4-phenylpyrrolidine-2-carboxamide Dihydrochloride]", "values": [{"measurement": "pKi", "setting": "[1]; read-out: MASP-2 Ki", "result": "> 6.30"}, {"measurement": "MASP-2 vs. thrombin selectivity", "setting": "[1]", "result": "* (≥1.0 to <5.0-fold)"}, {"measurement": "pKi", "setting": "[2]", "result": "> 6.30"}, {"measurement": "Ki", "setting": "[3]", "result": "0.5 to 2.5", "unit": "µM"}]}, {"compound": "COc1ccc(C[C@@H]2CN[C@@H](C(=O)N[C@@H](C)C(=O)NCc3ccc(N)nc3C)C2)cc1Cl", "note": "[compound 1475, (2R,4S)—N—((S)-1-(((6-Amino-2-methylpyridin-3-yl)methyl)amino)-1-oxopropan-2-yl)-4-(3-chloro-4-methoxybenzyl)pyrrolidine-2-carboxamide Di-trifluoroacetate salt]", "values": [{"measurement": "pKi", "setting": "[1]; read-out: MASP-2 Ki", "result": "> 6.30"}, {"measurement": "MASP-2 vs. thrombin selectivity", "setting": "[1]", "result": "**** (≥100-fold)"}, {"measurement": "pKi", "setting": "[2]", "result": "> 6.30"}, {"measurement": "Ki", "setting": "[3]", "result": "10 to 25", "unit": "µM"}]}, {"compound": "Cc1cc(Cl)cc(CNC(=O)[C@H](C)NC(=O)[C@H](N)CCc2ccccc2)c1O", "note": "[compound 1299, (R)-2-Amino-N—((S)-1-((5-chloro-2-hydroxy-3-methylbenzyl)amino)-1-oxopropan-2-yl)-4-phenylbutanamide Hydrochloride]", "values": [{"measurement": "pKi", "setting": "[1]; read-out: MASP-2 Ki", "result": "> 6.30"}, {"measurement": "MASP-2 vs. thrombin selectivity", "setting": "[1]", "result": "**** (≥100-fold)"}, {"measurement": "pKi", "setting": "[2]", "result": "4.60 to 5.00"}, {"measurement": "pKi", "setting": "[3]", "result": "< 4.60"}]}, {"compound": "C[C@H](NC(=O)[C@H]1C[C@H](c2ccccc2)CN1)C(=O)NCc1cc(O)cc(Cl)c1", "note": "[compound 1364, (2R,4R)—N—((S)-1-((3-Chloro-5-hydroxybenzyl)amino)-1-oxopropan-2-yl)-4-phenylpyrrolidine-2-carboxamide Hydrochloride]", "values": [{"measurement": "pKi", "setting": "[1]", "result": "5.60 to 6.30"}, {"measurement": "pKi", "setting": "[2]", "result": "4.60 to 5.00"}, {"measurement": "pKi", "setting": "[3]", "result": "< 4.60"}]}, {"compound": "CC[C@H]1N[C@@H](C(=O)N[C@@H](C)C(=O)NCc2ccc(N)nc2C)C[C@@H]1Cc1ccccc1", "note": "[compound 1413, (2R,4S,5R)—N—((S)-1-(((6-Amino-2-methylpyridin-3-yl)methyl)amino)-1-oxopropan-2-yl)-4-benzyl-5-ethylpyrrolidine-2-carboxamide Di-trifluoroacetate salt]", "values": [{"measurement": "pKi", "setting": "[1]", "result": "5.60 to 6.30"}, {"measurement": "MASP-2 vs. thrombin selectivity", "setting": "[1]", "result": "*** (≥25 to <100-fold)"}, {"measurement": "pKi", "setting": "[2]", "result": "5.00 to 5.60"}, {"measurement": "pKi", "setting": "[3]", "result": "< 4.60"}]}, {"compound": "Cc1nc(N)ccc1CNC(=O)[C@H](C)NC(=O)[C@@H](CCc1ccccc1)NCc1ccc(C(=O)N2CCOCC2)cc1", "note": "[compound 1381, (R)—N—((S)-1-(((6-Amino-2-methylpyridin-3-yl)methyl)amino)-1-oxopropan-2-yl)-2-((4-(morpholine-4-carbonyl)benzyl)amino)-4-phenylbutanamide Di-trifluoroacetate salt]", "values": [{"measurement": "pKi", "setting": "[1]", "result": "5.60 to 6.30"}, {"measurement": "MASP-2 vs. thrombin selectivity", "setting": "[1]", "result": "** (≥5.0 to <25-fold)"}, {"measurement": "pKi", "setting": "[2]", "result": "4.60 to 5.00"}, {"measurement": "Ki", "setting": "[3]", "result": "10 to 25", "unit": "µM"}]}, {"compound": "C[C@H](NC(=O)[C@H]1C[C@H](Cc2ccc(F)c(Cl)c2)CN1)C(=O)NCc1cnc2c(c1)c(Cl)cn2C", "note": "[compound 1474, (2R,4S)—N—((S)-1-(((3-Chloro-1-methyl-1H-pyrrolo[2,3-b]pyridin-5-yl)methyl)amino)-1-oxopropan-2-yl)-4-(3-chloro-4-fluorobenzyl)pyrrolidine-2-carboxamide Trifluoroacetate salt]", "values": [{"measurement": "pKi", "setting": "[1]; read-out: MASP-2 Ki", "result": "> 6.30"}, {"measurement": "MASP-2 vs. thrombin selectivity", "setting": "[1]", "result": "**** (≥100-fold)"}, {"measurement": "pKi", "setting": "[2]", "result": "> 6.30"}, {"measurement": "pKi", "setting": "[3]", "result": "< 4.60"}]}]}
